From patent US9051310B2, “Nicotinamide derivative or salt thereof” (FUJIFILM Corporation, priority 2011, dated 2015)

What was measured:
[1] = target: T1, glutathione S-transferase (GST)-linked full-length human Syk protein (Homo sapiens, UniProt P43405); experiment: Syk enzyme assay; type: biochemical; conditions: 0.83 nM Syk, time-resolved fluorescence; read-out: IC50 of Syk-inhibitory activity
T1 construct: glutathione S-transferase (GST)-linked full-length human Syk protein; purchased Carna Biosciences; host or cells: Baculovirus expression system
Outline: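 Phosphotyrosine on a biotin-peptide substrate (0.5 μM) was read by time-resolved fluorescence at 615 and 665 nm with Eu-anti-pTyr antibody and APC-streptavidin after 1 h EDTA stop.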

[2] = tested on: THP-1 cells (TNFα secretion on human IgG-coated plate); experiment: TNFα generation assay; type: cell-based; conditions: IFN-γ differentiated THP-1 cells, 7 hours, AlphaLISA, read-out: IC50 of TNFα generation inhibitory activity
Outline: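 THP-1 cells were differentiated with 10 ng/ml IFN-γ for 2 days, then preincubated with compound for 30 min at room temperature. They were then plated at 5×10^4 cells/well on plates coated with human IgG (10 μg/ml). TNFα secreted over 7 h of culture was quantified by AlphaLISA.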

IC50 [1] [nM] | IC50 [2] [nM] | SMILES
< 10 | 65 to 130 | CC[C@@H](Nc1nc(Nc2ccc3c(c2)c(C)nn3CCOC)c(C(N)=O)cc1F)[C@H](C)N [Example 2-131, 6-(((2S,3R)-2-aminopentan-3-yl)amino)-5-fluoro-2-((1-(2-methoxyethyl)-3-methyl-1H-indazol-5-yl)amino)nicotinamide]
< 10 | 65 to 130 | COCCn1nc(OC)c2cc(Nc3nc(N[C@@H]4CCOC[C@@H]4N)c(F)cc3C(N)=O)ccc21 [Example 2-329, 6-(((3R,4R)-3-aminotetrahydro-2H-pyran-4-yl)amino)-5-fluoro-2-((3-methoxy-1-(2-methoxyethyl)-1H-indazol-5-yl)amino)nicotinamide]
< 10 | 130 to 200 | CC(C)C[C@H](CN)Nc1nc(Nc2cc(F)c3c(c2)c(N(C)C)nn3C)c(C(N)=O)cc1F [Example 2-185, (R)-6-((1-amino-4-methylpentan-2-yl)amino)-2-((3-(dimethylamino)-7-fluoro-1-methyl-1H-indazol-5-yl)amino)-5-fluoronicotinamide]
< 10 | 65 to 130 | COc1nn(C)c2ncc(Nc3nc(N[C@H](C4CC4)[C@H](C)N)c(F)cc3C(N)=O)cc12 [Example 2-253, 6-(((1R,2S)-2-amino-1-cyclopropylpropyl)amino)-5-fluoro-2-((3-methoxy-1-methyl-1H-pyrazolo[3,4-b]pyridin-5-yl)amino)nicotinamide]
< 10 | 130 to 200 | Cc1cc(C)cc(Nc2nc(N[C@H](C3CC3)[C@H](C)N)c(F)cc2C(N)=O)c1 [Example 2-45, 6-(((1R,2S)-2-amino-1-cyclopropylpropyl)amino)-2-((3,5-dimethylphenyl)amino)-5-fluoronicotinamide]
< 10 | 65 to 130 | CCOC[C@@H](Nc1nc(Nc2ccc3c(cnn3CC)c2)c(C(N)=O)cc1F)[C@H](C)N [Example 2-182, 6-(((2S,3S)-3-amino-1-ethoxybutan-2-yl)amino)-2-((1-ethyl-1H-indazol-5-yl)amino)-5-fluoronicotinamide]
10 to 50 | 130 to 200 | NC(=O)c1cc(F)c(N[C@@H]2CCCC[C@@H]2N)nc1Nc1cnc(-n2nccn2)c(F)c1 [Example 2-67, 6-(((1R,2S)-2-aminocyolohexyl)amino)-5-fluoro-2-((5-fluoro-6-(2H-1,2,3-triazol-2-yl)pyridin-3-yl)amino)nicotinamide]
< 10 | 65 to 130 | CC[C@H](N)[C@@H](C)Nc1nc(Nc2cncc(C3CC3)c2)c(C(N)=O)cc1F [Example 2-41, 6-(((2R,3S)-3-aminopentan-2-yl)amino)-2-((5-cyclopropylpyridin-3-yl)amino)-5-fluoronicotinamide]
< 10 | 130 to 200 | Cc1cc(C)cc(Nc2nc(N[C@H](C3CCC3)[C@H](C)N)c(F)cc2C(N)=O)c1 [Example 2-26, 6-(((1R,2S)-2-amino-1-cyclobutylpropyl)amino)-2-((3,5-dimethylphenyl)amino)-5-fluoronicotinamide]
< 10 | 130 to 200 | NC(=O)c1cc(F)c(N[C@@H]2CCCC[C@@H]2N)nc1Nc1ccc(F)cc1 [Example 2-441, 6-(((1R,2S)-2-aminocyclohexyl)amino)-5-fluoro-2-((4-fluorophenyl)amino) nicotinamide]
10 to 50 | 130 to 200 | Cc1ccc(Nc2nc(N[C@@H]3CCOC[C@@H]3N)c(F)cc2C(N)=O)cn1 [Example 2-219, 6-(((3R,4R)-3-aminotetrahydro-2H-pyran-4-yl)amino)-5-fluoro-2-((6-methylpyridin-3-yl)amino)nicotinamide]
10 to 50 | 130 to 200 | COc1ncc(Nc2nc(N[C@@H]3CCOC[C@@H]3N)c(F)cc2C(N)=O)cc1-n1ccnn1 [Example 2-215, 6-(((3R,4R)-3-aminotetrahydro-2H-pyran-4-yl)amino)-5-fluoro-2-((6-methoxy-5-(1H-1,2,3-triazol-1-yl)pyridin-3-yl)amino)nicotinamide]
10 to 50 | 130 to 200 | CCOC[C@@H](Nc1nc(Nc2cc(OC)cc(OC)c2)c(C(N)=O)cc1F)[C@H](C)N [Example 2-268, 6-(((2S,3S)-3-amino-1-ethoxybutan-2-yl)amino)-2-((3,5-dimethoxyphenyl)amino)-5-fluoronicotinamide]
10 to 50 | 130 to 200 | COc1cc(Nc2nc(N[C@H](C)[C@@H](N)C3CC3)c(F)cc2C(N)=O)cc(OC)c1 [Example 2-229, 6-(((1S,2R)-1-amino-1-cyclopropylpropan-2-yl)amino)-2-((3,5-dimethoxyphenyl)amino)-5-fluoronicotinamide]
< 10 | 130 to 200 | CCn1ncc2ccc(Nc3nc(N[C@H](CC(C)C)[C@H](C)N)c(F)cc3C(N)=O)cc21 [Example 2-11, 6-(((2S,3R)-2-amino-5-methylhexan-3-yl)amino)-2-((1-ethyl-1H-indazol-6-yl)amino)-5-fluoronicotinamide]
< 10 | 65 to 130 | CCn1ncc2cc(Nc3nc(N[C@H](c4ccccn4)[C@H](C)N)c(F)cc3C(N)=O)ccc21 [Example 2-381]
10 to 50 | 130 to 200 | CNc1ncc(Nc2nc(N[C@H](C3CC3)[C@H](C)N)c(F)cc2C(N)=O)cc1F [Example 2-274, 6-(((1R,2S)-2-amino-1-cyclopropylpropyl)amino)-5-fluoro-2-((5-fluoro-6-(methylamino)pyridin-3-yl)amino)nicotinamide]
< 10 | 130 to 200 | COc1nn(C)c2ncc(Nc3nc(N[C@H](CC(C)C)[C@H](C)N)c(F)cc3C(N)=O)cc12 [Example 2-255, 6-(((2S,3R)-2-amino-5-methylhexan-3-yl)amino)-5-fluoro-2-((3-methoxy-1-methyl-1H-pyrazolo[3,4-b]pyridin-5-yl)amino)nicotinamide]
< 10 | 65 to 130 | Cn1nc(F)c2cc(Nc3nc(N[C@@H]4CCOC[C@@H]4N)c(F)cc3C(N)=O)ccc21 [Example 2-209, 6-(((3R,4R)-3-aminotetrahydro-2H-pyran-4-yl)amino)-5-fluoro-2-((3-fluoro-1-methyl-1H-indazol-5-yl)amino)nicotinamide]
< 10 | 130 to 200 | COc1nn(C)c2c(F)cc(Nc3nc(N[C@@H]4CCCC[C@@H]4N)c(F)cc3C(N)=O)cc12 [Example 2-150, 6-(((1R,2S)-2-aminocyclohexyl)amino)-5-fluoro-2-((7-fluoro-3-methoxy-1-methyl-1H-indazol-5-yl)amino)nicotinamide]
< 10 | 65 to 130 | COCCn1ncc2c(Nc3nc(N[C@H](C4CC4)[C@H](C)N)c(F)cc3C(N)=O)cc(F)cc21 [Example 2-377, 6-(((1R,2S)-2-amino-1-cyclopropylpropyl)amino)-5-fluoro-2-((6-fluoro-1-(2-methoxyethyl)-1H-indazol-4-yl)amino)nicotinamide]
< 10 | 130 to 200 | CCC[C@@H](Nc1nc(Nc2ccc3c(c2)c(C)nn3CCOC)c(C(N)=O)cc1F)[C@H](C)N [Example 2-132, 6-(((2S,3R)-2-aminohexan-3-yl)amino)-5-fluoro-2-((1-(2-methoxyethyl)-3-methyl-1H-indazol-5-yl)amino)nicotinamide]
< 10 | 65 to 130 | C[C@H](N)[C@H](Nc1nc(Nc2cccc3ncccc23)c(C(N)=O)cc1F)C1CC1 [Example 2-404, 6-(((1R,2S)-2-amino-1-cyclopropylpropyl)amino)-5-fluoro-2-(quinolin-5-ylamino)nicotinamide]
